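The compound was tested at five concentrations on cells cultured in 96-well plates, with a 48-hour exposure period. GI50: concentration for 50% inhibition of growth.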 The source made the active and inactive calls. Cut-off read from the data, not from the text of the source: active = GI50 up to about 1.1 µM and inactive = higher.
What was measured:
Test in all cases: growth of human tumour cells (NCI), 48 h
[1] = test system: 786-0
[2] = test system: COLO 205
[3] = test system: HCC 2998
[4] = test system: HL-60
[5] = test system: HOP-62
[6] = test system: HOP-92
[7] = test system: MOLT-4
[8] = test system: Malme-3M
[9] = test system: OVCAR-3
[10] = test system: OVCAR-5
[11] = test system: RPMI-8226
[12] = test system: SF-539
[13] = test system: SNB-19
[14] = test system: U-251
[15] = test system: UACC-257
[16] = test system: CAKI-1
[17] = test system: HCT-15
[18] = test system: NCI-H23
[19] = test system: UACC-62

SMILES: CC(=O)N[C@@H]1C(O)CN2C(=O)C(=O)O[C@H](C(O)CO)[C@@H]12 (some centres undefined)
- GI50 [1]: > 100 µM (inactive)
- GI50 [2]: > 100 µM (inactive)
- GI50 [3]: > 100 µM (inactive)
- GI50 [4]: > 100 µM (inactive)
- GI50 [5]: > 100 µM (inactive)
- GI50 [6]: > 100 µM (inactive)
- GI50 [7]: > 100 µM (inactive)
- GI50 [8]: > 100 µM (inactive)
- GI50 [9]: > 100 µM (inactive)
- GI50 [10]: > 100 µM (inactive)
- GI50 [11]: > 100 µM (inactive)
- GI50 [12]: > 100 µM (inactive)
- GI50 [13]: > 100 µM (inactive)
- GI50 [14]: > 100 µM (inactive)
- GI50 [15]: > 100 µM (inactive)

SMILES: O=P(c1ccccc1)(c1ccccc1)C1CC=C(c2ccccc2)C2(CCCC2)C1 (centres undefined)
- GI50 [1]: 98.9 µM (inactive)
- GI50 [16]: 40.6 µM (inactive)
- GI50 [2]: 22.8 µM (inactive)
- GI50 [17]: 36.1 µM
- GI50 [4]: 21.6 µM (inactive)
- GI50 [6]: 12.5 µM (inactive)
- GI50 [7]: 21.4 µM (inactive)
- GI50 [8]: 34.8 µM (inactive)
- GI50 [18]: 9.44 µM (inactive)
- GI50 [9]: 49.1 µM (inactive)
- GI50 [10]: 29.7 µM (inactive)
- GI50 [11]: 20.5 µM (inactive)
- GI50 [12]: > 100 µM (inactive)
- GI50 [13]: 48.6 µM (inactive)
- GI50 [14]: 94 µM (inactive)
- GI50 [15]: 43.7 µM (inactive)
- GI50 [19]: 37.6 µM (inactive)

SMILES: O=C(N/N=C(COc1ccccc1Cl)\N=C\c1cccnc1)c1ccncc1
- GI50 [1]: > 100 µM (inactive)
- GI50 [16]: > 100 µM (inactive)
- GI50 [2]: > 100 µM (inactive)
- GI50 [3]: > 100 µM (inactive)
- GI50 [17]: > 100 µM
- GI50 [4]: > 100 µM (inactive)
- GI50 [5]: > 100 µM (inactive)
- GI50 [7]: > 100 µM (inactive)
- GI50 [8]: > 100 µM (inactive)
- GI50 [18]: > 100 µM (inactive)
- GI50 [9]: > 100 µM (inactive)
- GI50 [10]: > 100 µM (inactive)
- GI50 [11]: > 100 µM (inactive)
- GI50 [12]: > 100 µM (inactive)
- GI50 [13]: > 100 µM (inactive)
- GI50 [14]: > 100 µM (inactive)
- GI50 [15]: > 100 µM (inactive)
- GI50 [19]: > 100 µM (inactive)

SMILES: C=CCNC(=O)C(C)C1CCC2(C)C=CC(=O)C(C)=C2C1O (centres undefined)
- GI50 [16]: > 100 µM (inactive)
- GI50 [2]: > 100 µM (inactive)
- GI50 [3]: > 100 µM (inactive)
- GI50 [17]: > 100 µM
- GI50 [4]: > 100 µM (inactive)
- GI50 [5]: > 100 µM (inactive)
- GI50 [6]: > 100 µM (inactive)
- GI50 [7]: > 100 µM (inactive)
- GI50 [18]: > 100 µM (inactive)
- GI50 [9]: > 100 µM (inactive)
- GI50 [10]: > 100 µM (inactive)
- GI50 [11]: > 100 µM (inactive)
- GI50 [12]: > 100 µM (inactive)
- GI50 [13]: > 100 µM (inactive)
- GI50 [14]: > 100 µM (inactive)
- GI50 [15]: > 100 µM (inactive)
- GI50 [19]: > 100 µM (inactive)

SMILES: COC(=O)[C@@H](N1C(=O)c2ccccc2C1=O)C1(C)CC(Cl)=NO1 (some centres undefined)
- GI50 [1]: 34.8 µM (inactive)
- GI50 [16]: 12.7 µM (inactive)
- GI50 [2]: > 100 µM (inactive)
- GI50 [3]: > 100 µM (inactive)
- GI50 [17]: > 100 µM
- GI50 [5]: 17 µM (inactive)
- GI50 [8]: > 100 µM (inactive)
- GI50 [18]: 48.3 µM (inactive)
- GI50 [9]: > 100 µM (inactive)
- GI50 [10]: > 100 µM (inactive)
- GI50 [11]: > 100 µM (inactive)
- GI50 [13]: 24.8 µM (inactive)
- GI50 [14]: 26.2 µM (inactive)
- GI50 [15]: > 100 µM (inactive)
- GI50 [19]: > 100 µM (inactive)

SMILES: O=C(O)CCC(NC(=O)c1ccc(Nc2cnc3cc(C(F)(F)F)ccc3n2)cc1)C(=O)O (centres undefined)
- GI50 [2]: > 100 µM (inactive)
- GI50 [3]: > 100 µM (inactive)
- GI50 [17]: > 100 µM
- GI50 [4]: > 100 µM (inactive)
- GI50 [5]: > 100 µM (inactive)
- GI50 [6]: > 100 µM (inactive)
- GI50 [7]: > 100 µM (inactive)
- GI50 [8]: > 100 µM (inactive)
- GI50 [18]: > 100 µM (inactive)
- GI50 [9]: > 100 µM (inactive)
- GI50 [10]: > 100 µM (inactive)
- GI50 [11]: > 100 µM (inactive)
- GI50 [12]: > 100 µM (inactive)
- GI50 [13]: > 81.5 µM (inactive)
- GI50 [14]: > 100 µM (inactive)
- GI50 [15]: > 100 µM (inactive)
- GI50 [19]: > 100 µM (inactive)

Reference: ChEMBL document CHEMBL1201862, “PubChem BioAssay data set” (2004)
